Ends that are not written are not given here.
Experiments:
[1] = system: KISS1R-expressing cell line MCF-7; test: Fluorescence microscopy of probe binding to cultured MCF-7 cells; assay type: cell-based, human; settings: S2A Fig
Method: MSCs were seeded in a Nunc^TM Lab-Tek^TM II 4-well chamber slide (6.7x10^3 cells/well) (Thermo Fischer Scientific GmbH, Erlangen, Germany) and allowed to attach overnight. Afterwards, the medium was replaced by 500 μl mixed media, 1:1 (v/v), followed by 24 h incubation. The day after, 500 μl mixed media, 1:1 (v/v) containing 1x10^4 INA-6 cells or 1.5x10^5 MOPC cells, 500 μl MM cell-derived supernatant (conditioned media) or 500 μl mixed media, 1:1 (v/v) (control) was added per well. […] After rinsing three times with PBS, cells were fixed in 4% paraformaldehyde and mounted with Vectashield mounting media for fluorescence containing 4',6-diamidino-2-phenylindole (Vector Laboratories, Inc., purchased from Linaris, Dossenheim, Germany). Images were acquired using a BZ-9000 fluorescence microscope (Cy5 filter) and the softwares BZ-II Viewer and BZ-II Analyzer 2.1 (all from Keyence, Neu-Isenburg, Germany).
(§1) Supplementary file pone.0155087.s002.tif: S2 Fig Alexa 633-kisspeptin binds to the KISS1R-expressing cell line MCF-7 in vitro and in vivo. Cultured MCF-7 cells were incubated with either free dye or dye conjugated to the modified kisspeptin and imaged with fluorescence microscopy (A). […] Tibia fluorescence was quantified over time (D) and plateau fluorescent values determined (E). […]

primary MSCs (KISS1R) = test: Fluorescence microscopy of probe binding to primary MSCs (alone, conditioned media, direct co-culture with MM cells); assay type: cell-based, human; settings: for binding to primary MSCs under normal culture conditions: MSCs alone, room temperature, fluorescence microscopy (Cy5 filter), Fig 4A; for binding to primary MSCs under normal culture conditions / binding to MSCs and MM cells after direct co-culture: 30 min incubation, 40 μmol/l; for binding to MSCs and MM cells after direct co-culture: MSCs directly co-cultured 24 h with INA-6 or MOPC cells
Method: MSCs were seeded in a Nunc^TM Lab-Tek^TM II 4-well chamber slide (6.7x10^3 cells/well) (Thermo Fischer Scientific GmbH, Erlangen, Germany) and allowed to attach overnight. Afterwards, the medium was replaced by 500 μl mixed media, 1:1 (v/v), followed by 24 h incubation. The day after, 500 μl mixed media, 1:1 (v/v) containing 1x10^4 INA-6 cells or 1.5x10^5 MOPC cells, 500 μl MM cell-derived supernatant (conditioned media) or 500 μl mixed media, 1:1 (v/v) (control) was added per well. For preparation of the conditioned media, INA-6 cells (2x10^5 cells/ml) or MOPC cells (3.75x10^4 cells/ml) were cultured for one day in mixed media, 1:1 (v/v), followed by centrifugation (270 g, 5 min) and filtration of the supernatant (filter pore size: 0.45 μm). After 24 h, cells were incubated for 30 min with either free dye or the Alexa 633-kisspeptin (40 μmol/l) at room temperature. After rinsing three times with PBS, cells were fixed in 4% paraformaldehyde and mounted with Vectashield mounting media for fluorescence containing 4',6-diamidino-2-phenylindole (Vector Laboratories, Inc., purchased from Linaris, Dossenheim, Germany). Images were acquired using a BZ-9000 fluorescence microscope (Cy5 filter) and the softwares BZ-II Viewer and BZ-II Analyzer 2.1 (all from Keyence, Neu-Isenburg, Germany).

[2] = system: MCF-7 tumor-burdened tibiae; test: In vivo fluorescence imaging of mice intratibially injected with MCF-7 cells; settings: CD-1 nude mice, intratibial MCF-7, 100 μl of 40 μM probe, NightOwl imaging for 20 min, plateau values, n = 3, p<0.05 (S2E Fig)
Method: (§2) In vivo binding of Alexa 633-kisspeptin was tested in immune competent BALB/c and CD-1 nude mice, inoculated with MOPC cells and MCF-7 cells, respectively. All experiments were performed according to the German regulations for animal experimentation. The study was approved by the Regierung von Unterfranken as the responsible authority (Permit Number 55.2–2531.01-76/10 and -103/11) and by the institutional authorities of the Ethics Committee for Animal Experiments at the Christian Albrechts University of Kiel (V242-7224.121–17). 1x10^6 MCF-7 cells transfected with the near-infrared fluorescent protein [31] were suspended in 5 μl PBS and injected directly into the right tibia, with equal amounts of PBS injected into contralateral control limbs, of 3 female CD-1 nude mice (Charles River). Tumor progression was monitored using the NightOwl planar imaging system (Berthold Technologies, Bad Wildbad, Germany). […]
as §1

[3] = system: MOPC315.BM2-LucGFP MM bone lesions; test: In vivo time-lapse fluorescence imaging of MM bone lesions (MOPC model); settings: BALB/c mice with MOPC lesions in one hind leg, 100 μl of 40 μM probe i.v., imaged for 1 h, relative to pre-scan, n = 6, p<0.01 (Fig 5E)
Method: as §2, with “Germany). 1x10^5 MOPC cells, suspended in 100 μl PBS, were injected i.v. via the lateral tail vein into immune-competent female BALB/c mice (Charles River). 19 days after the injection of the MM cells, mice were imaged by in vivo bioluminescence (BLI) to identify 6 mice which contain lesions in only one of the hind legs. All animals were kept in temperature and humidity-controlled, pathogen-free environment, with a 12 h light/dark cycle, and access to food and water ad libitum.” for “Germany).”

[4] = mouse, in vivo, iv
Method: BLI was performed with an IVIS Spectrum (Caliper-Xenogen, Alameda, CA, USA) as previously described [32]. Briefly, mice were anesthetized i.p. with a mixture of ketamine (100 mg/kg) and xylazine (10 mg/kg) in PBS. Luciferin (150 mg/kg) was co-injected and BLI measurements were started 10 min later. For MCF-7 mice, animals were imaged every minute following injection of 100 μl of Alexa 633-kisspeptin (40 μM) using the NightOwl. For MM-containing mice, a fluorescence pre-scan (excitation filter: 605 nm, emission filter: 660 nm; illumination time: 1 s) was performed using the IVIS Spectrum. Next, mice were injected with 100 μl of Alexa 633-kisspeptin (40 μM) in the lateral tail vein and immediately imaged every two minutes for up to 20 min using the fluorescence settings as described above. In addition, fluorescent images were acquired after 30, 45, and 60 min. At the end of the experiment mice were then euthanized, organs were prepared, and fluorescence ex vivo imaging of the organs was performed. Imaging data was analyzed with Living Image 4.0 (Caliper-Xenogen, Alameda, CA, USA) and Prism 5 software (GraphPad, La Jolla, CA, USA).
All statistical analyses were conducted using Prism 5 software. Comparison between groups was made using either a paired or unpaired two-sample t-tests. Comparison of organ fluorescence was conducted using a 1-way ANOVA and Turkey’s multiple comparison test. Alexa 633-kisspeptin binding kinetics were quantified using association then dissociation curves with time0 = 25 min and NS = 1. P values of <0.05 were considered to be statistically significant.

[5] = system: matrix metalloproteinase 2; settings: cited from earlier work
Source text: The data presented herein support KISS1R as a novel and promising new biomarker for myeloma bone disease, but still several questions remain. Firstly, while we have described the up-regulation of the KISS1R cells directly interacting with MM cells, little is known so far about the role of kisspeptin and the KISS1R in MM disease progression. It will be of great importance to understand the role of kisspeptin and the KISS1R in both bone marrow cells and MM, and to be aware of what potential side effects, either positive or negative, may be associated with targeting or activation of this system. ...

[6] = compared with 10, 13 and 14 amino acid isoforms; cited from earlier work

Substance | binding to MCF-7 cells in vitro [1] | binding to MSCs cultured in MM cell conditioned media (primary MSCs (KISS1R); MSCs 24 h in INA-6 or MOPC conditioned media, 30 min with 40 μmol/l probe, Fig 4B) | binding to primary MSCs under normal culture conditions (primary MSCs (KISS1R)) | binding to MSCs and MM cells after direct co-culture (primary MSCs (KISS1R); Fig 4B) | fluorescence signal in tumor-burdened tibiae relative to contralateral controls [2] | peak fluorescence in tumor-burdened limbs compared to contralateral sites [3] | organ uptake: kidney fluorescence [4] | organ uptake: liver fluorescence [4] | organ uptake: ovaries [4] | cleavage by matrix metalloproteinase 2 [5] | stability of the 54 amino acid form relative to the shorter isoforms [6]
Alexa 633-kisspeptin: 54 amino acid kisspeptin with an N-terminal cysteine residue, labeled with Alexa Fluor 633 C5 Maleimide (C(Alexa Fluor 633 C5 maleimide)GTSLSPPPESSGSPQQPGLSAPHSRQIPAPQGAVLVQREKDLPNYNWNSFGLRF; ends and bridges not checked) | bound | low level probe binding | low level, heterogeneous binding | at high levels | significantly elevated signals | Significantly greater peak fluorescence levels | significantly high levels of fluorescence | significantly high levels of fluorescence | a notable amount of probe was also detected | – | –
Alexa Fluor 633 C5 Maleimide [free dye, reference compound] | – | – | no notable fluorescence | failed to show any specific binding | – | – | – | – | – | – | –
kisspeptin | – | – | – | – | – | – | – | – | – | cleaved and inactivated | higher stability
